{"source": "patent US7659284B2", "about": "“Thiazolopyridine kinase inhibitors” (Janssen Pharmaceutica NV, priority 2004, dated 2010)", "data": [{"target": "T1, EGFR (Homo sapiens, UniProt P00533)", "T1 construct": "started at nucleotide 2189 (corresponding to amino acid 667) and ended at the termination codon; made in house; host or cells: Sf9 insect cells (baculovirus)", "T1 sequence (P00533 667-1210 limits assumed)": "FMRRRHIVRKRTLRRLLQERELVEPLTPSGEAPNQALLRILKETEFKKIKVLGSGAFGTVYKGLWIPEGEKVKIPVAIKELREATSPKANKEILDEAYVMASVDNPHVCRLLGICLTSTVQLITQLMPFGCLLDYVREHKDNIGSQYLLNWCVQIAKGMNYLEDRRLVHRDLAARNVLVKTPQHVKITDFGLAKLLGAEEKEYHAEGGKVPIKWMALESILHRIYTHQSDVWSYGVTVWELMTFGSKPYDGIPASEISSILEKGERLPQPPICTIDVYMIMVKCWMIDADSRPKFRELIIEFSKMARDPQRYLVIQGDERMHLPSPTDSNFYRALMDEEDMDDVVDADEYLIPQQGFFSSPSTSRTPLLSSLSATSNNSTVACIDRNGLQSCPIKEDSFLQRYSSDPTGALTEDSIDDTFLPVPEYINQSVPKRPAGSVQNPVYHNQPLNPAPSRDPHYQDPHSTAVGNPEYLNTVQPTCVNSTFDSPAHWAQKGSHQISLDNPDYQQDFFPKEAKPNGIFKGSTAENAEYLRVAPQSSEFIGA", "assay": "EGFR Kinase Assay (GST-EGFR, 33P-ATP, Streptavidin Flashplate)", "format": "biochemical", "conditions": "GST-EGFR intracellular portion, 5 μM ATP", "description": "The EGFR kinase used was a fusion of Glutathione-S-Transferase (GST) and a PCR amplified intracellular portion of EGFR (NM_005228). The intracellular portion of EGFR started at nucleotide 2189 (corresponding to amino acid 667) and ended at the termination codon. The portion was PCR amplified with primers that added the lambda attB sequences to each end, recombined into an entry vector, then into a GST destination vector (as described in Gateway Technologies Manual by Invitrogen Corporation, Carlsbad, Calif.).\nThe destination vector was recombined in the DH10BAC strain of bacteria to produce a bacmid. The bacmid was transfected into Sf 9 cells and the supernatant containing the baculovirus was collected. The GSTEGFR protein was purified using large cultures of Sf 9 cells infected with stock virus. After an appropriate period of time, the cells were collected and lysed. The GSTEGFR was then purified from the lysate on Glutathione-Sepharose columns (as described by Amersham Biosciences, Buckinghamshire, United Kingdom).\nThe EGFR substrate was prepared by biotinylating polyGluTyr (128 mg) (Sigma, St. Louis, Mo.) in a 1×PBS buffer incubated together with a 12-fold molar excess of Sulfo-NHS-LC-Biotin on ice for at least 2 hrs. The free biotin was separated from the biotinylated polyGluTyr on a gel filtration column.\nA mixture of a 10× kinase buffer (500 mM Tris at pH 8.0, 100 mM Magnesium Chloride and 1 mM Sodium Vanadate), DTT (1 mM final from 500 mM stock), ATP (5 μM final from 10 mM stock), biotinylated polyGluTyr (10 μg/μL stock), γ-^33P ATP (10 μCi/μL stock) and water was added to each well (90 μL/well) of a Streptavidin Flashplate (Perkin Elmer, Wellesley, Mass.).\nTest compound in 100% DMSO (2 μL) was added to the appropriate wells. Diluted GSTEGFR (1:300 dilution in 50 mM Tris at pH 8.0 and 0.1% bovine serum albumin) (10 μL) was added to the wells to initiate the reactions.\nThe plates were incubated at 30° C. for 1 hr with shaking. The reacted contents were removed and the plates were sequentially washed three times with a 1×PBS stop buffer (300 μL without Magnesium and Calcium) and 100 mM EDTA. After the final wash, the same stop buffer (200 μL) was added to the wells. The plates were then sealed and read on the TopCount scintillation counter.\nTest compounds were assayed in triplicate at 16 concentrations at half-log dilutions starting at 200 uM. A maximum and minimum signal for the assay was determined on each plate. The percent inhibition of a test compound was calculated accord to the formula\nFor a series of test concentrations, the IC50 was derived by graphing percent inhibition against the log of the concentrations tested for a given compound. For those compounds without an IC50, the percent inhibition results are shown at a test concentration of 2 μM.", "units": {"IC50": "nM"}, "values": [{"smiles": "N#Cc1cnc2nc(NCCCN3CCOCC3)sc2c1Nc1ccc(F)c(Cl)c1", "note": "[Cpd 8, 7-(3-chloro-4-fluoro-phenylamino)-2-(3-morpholin-4-yl-propylamino)-thiazolo[4,5-b]pyridine-6-carbonitrile]", "IC50": 2630}, {"smiles": "CN(Cc1ccc(Nc2nc3ncc(C#N)c(Nc4ccc(F)c(Cl)c4)c3s2)cc1)C1CCOCC1", "note": "[Cpd 16, 7-(3-chloro-4-fluoro-phenylamino)-2-(4-{[methyl-(tetrahydro-pyran-4-yl)-amino]-methyl}-phenylamino)-thiazolo[4,5-b]pyridine-6-carbonitrile]", "IC50": 76.4}, {"smiles": "CN(Cc1ccc(Nc2nc3ncc(C#N)c(Nc4ccc(F)c(Cl)c4)c3s2)cc1)C[C@@H]1CCCO1", "note": "[Cpd 15, 7-(3-chloro-4-fluoro-phenylamino)-2-[(4-{methyl-[(2S)-tetrahydro-furan-2-ylmethyl]-amino}-methyl)-phenylamino]-thiazolo[4,5-b]pyridine-6-carbonitrile]", "IC50": 76.1}, {"smiles": "N#Cc1cnc2nc(Nc3ccc(CN4CCOCC4)cc3)sc2c1Nc1cccc(Cl)c1", "note": "[Cpd 19, 7-(3-chloro-phenylamino)-2-(4-morpholin-4-ylmethyl-phenylamino)-thiazolo[4,5-b]pyridine-6-carbonitrile]", "IC50": 79.5}, {"smiles": "N#Cc1cnc2nc(NCc3ccc(CN4CCOCC4)cc3)sc2c1Nc1ccc(F)c(Cl)c1", "note": "[Cpd 22, 7-(3-chloro-4-fluoro-phenylamino)-2-(4-morpholin-4-ylmethyl-benzylamino)-thiazolo[4,5-b]pyridine-6-carbonitrile]", "IC50": 853}, {"smiles": "N#Cc1cnc2nc(Nc3ccc(CN4CCOCC4)cc3)sc2c1Nc1ccc(Cl)cc1Cl", "note": "[Cpd 34, 7-(2,4-dichloro-phenylamino)-2-(4-morpholin-4-ylmethyl-phenylamino)-thiazolo[4,5-b]pyridine-6-carbonitrile]", "IC50": 1450}, {"smiles": "CN(C)Cc1ccc(Nc2nc3ncc(C#N)c(Nc4ccc(F)c(Cl)c4)c3s2)cc1Cl", "note": "[Cpd 18, 2-(3-chloro-4-dimethylaminomethyl-phenylamino)-7-(3-chloro-4-fluoro-phenylamino)-thiazolo[4,5-b]pyridine-6-carbonitrile]", "IC50": 85.7}, {"smiles": "C#Cc1cccc(Nc2c(C#N)cnc3nc(Nc4ccc(CN5CCC[C@H]5CO)cc4)sc23)c1", "note": "[Cpd 11, 7-(3-ethynyl-phenylamino)-2-{4-[(2S)2-hydroxymethyl-pyrrolidin-1-ylmethyl]-phenylamino}-thiazolo[4,5-b]pyridine-6-carbonitrile]", "IC50": 41.7}, {"smiles": "N#Cc1cnc2nc(Nc3ccc(CN4CCOCC4)cc3)sc2c1Nc1ccc(F)c(Cl)c1", "note": "[Cpd 2, 7-(3-chloro-4-fluoro-phenylamino)-2-(4-morpholin-4-ylmethyl-phenylamino)-thiazolo[4,5-b]pyridine-6-carbonitrile]", "IC50": 78}, {"smiles": "N#Cc1cnc2nc(Nc3ccc(CN4CCC[C@H]4CO)cc3)sc2c1Nc1ccc(F)c(Cl)c1", "note": "[Cpd 6, 7-(3-chloro-4-fluoro-phenylamino)-2-{4-[(2S)-2-hydroxymethyl-pyrrolidin-1-ylmethyl]-phenylamino}-thiazolo[4,5-b]pyridine-6-carbonitrile]", "IC50": 53}, {"smiles": "CN(Cc1ccc(Nc2nc3ncc(C#N)c(Nc4ccc(F)c(Cl)c4)c3s2)cc1)C[C@H]1CCCO1", "note": "[Cpd 14, 7-(3-chloro-4-fluoro-phenylamino)-2-[(4-{methyl-[(2R)-tetrahydro-furan-2-ylmethyl]-amino}-methyl)-phenylamino]-thiazolo[4,5-b]pyridine-6-carbonitrile]", "IC50": 29.3}, {"smiles": "N#Cc1cnc2nc(Nc3ccc(O)nc3)sc2c1Nc1ccc(F)c(Cl)c1", "note": "[Cpd 27, 7-(3-chloro-4-fluoro-phenylamino)-2-(6-hydroxy-pyridin-3-ylamino)-thiazolo[4,5-b]pyridine-6-carbonitrile]", "IC50": 207}, {"smiles": "CCc1nccn1Cc1ccc(Nc2nc3ncc(C#N)c(Nc4ccc(F)c(Cl)c4)c3s2)cc1", "note": "[Cpd 1, 7-(3-chloro-4-fluoro-phenylamino)-2-[4-(2-ethyl-imidazol-1-ylmethyl)-phenylamino]-thiazolo[4,5-b]pyridine-6-carbonitrile]", "IC50": 22.6}, {"smiles": "C#Cc1cccc(Nc2c(C#N)cnc3nc(NCCN4CCOCC4)sc23)c1", "note": "[Cpd 13, 7-(3-ethynyl-phenylamino)-2-(2-morpholin-4-yl-ethylamino)-thiazolo[4,5-b]pyridine-6-carbonitrile]", "IC50": 3280}, {"smiles": "N#Cc1cnc2nc(Nc3ccc(Cl)nc3)sc2c1Nc1ccc(F)c(Cl)c1", "note": "[Cpd 28, 7-(3-chloro-4-fluoro-phenylamino)-2-(6-chloro-pyridin-3-ylamino)-thiazolo[4,5-b]pyridine-6-carbonitrile]", "IC50": 327}, {"smiles": "N#Cc1cnc2nc(NCCN3CCOCC3)sc2c1Nc1cccc(Cl)c1", "note": "[Cpd 12, 7-(3-chloro-phenylamino)-2-(2-morpholin-4-yl-ethylamino)-thiazolo[4,5-b]pyridine-6-carbonitrile]", "IC50": 15800}, {"smiles": "N#Cc1cnc2nc(Nc3ccc(CN4CCC(N)CC4)cc3)sc2c1Nc1ccc(F)c(Cl)c1", "note": "[Cpd 31, 2-[4-(4-amino-piperidin-1-ylmethyl)-phenylamino]-7-(3-chloro-4-fluoro-phenylamino)-thiazolo[4,5-b]pyridine-6-carbonitrile]", "IC50": 60.4}, {"smiles": "N#Cc1cnc2nc(Nc3ccc(NCCN)nc3)sc2c1Nc1ccc(F)c(Cl)c1", "note": "[Cpd 30, 2-[6-(2-amino-ethylamino)-pyridin-3-ylamino]-7-(3-chloro-4-fluoro-phenylamino)-thiazolo[4,5-b]pyridine-6-carbonitrile]", "IC50": 67.7}, {"smiles": "N#Cc1cnc2nc(Nc3ccc(CNC[C@H]4CCCO4)cc3)sc2c1Nc1ccc(F)c(Cl)c1", "note": "[Cpd 21, 7-(3-chloro-4-fluoro-phenylamino)-2-[4-({[(2R)-tetrahydro-furan-2-ylmethyl]-amino}-methyl)-phenylamino]-thiazolo[4,5-b]pyridine-6-carbonitrile]", "IC50": 44.6}, {"smiles": "N#Cc1cnc2nc(Nc3ccc(NCCCN4CCOCC4)nc3)sc2c1Nc1ccc(F)c(Cl)c1", "note": "[Cpd 29, 7-(3-chloro-4-fluoro-phenylamino)-2-[6-(3-morpholin-4-yl-propylamino)-pyridin-3-ylamino]-thiazolo[4,5-b]pyridine-6-carbonitrile]", "IC50": 69.6}, {"smiles": "N#Cc1cnc2nc(Nc3ccc(S(=O)(=O)NCCN4CCOCC4)cc3)sc2c1Nc1ccc(F)c(Cl)c1", "note": "[Cpd 7, 4-[7-(3-chloro-4-fluoro-phenylamino)-6-cyano-thiazolo[4,5-b]pyridin-2-ylamino]-N-(2-morpholin-4-yl-ethyl)-benzenesulfonamide]", "IC50": 28.5}, {"smiles": "COCCN(CCOC)S(=O)(=O)c1ccc(Nc2nc3ncc(C#N)c(Nc4ccc(F)c(Cl)c4)c3s2)cc1", "note": "[Cpd 5, 4-[7-(3-chloro-4-fluoro-phenylamino)-6-cyano-thiazolo[4,5-b]pyridin-2-ylamino]-N,N-bis-(2-methoxy-ethyl)-benzenesulfonamide]", "IC50": 63.7}, {"smiles": "C#Cc1cccc(Nc2c(C#N)cnc3nc(NCCCN4CCOCC4)sc23)c1", "note": "[Cpd 9, 7-(3-ethynyl-phenylamino)-2-(3-morpholin-4-yl-propylamino)-thiazolo[4,5-b]pyridine-6-carbonitrile]", "IC50": 2630}, {"smiles": "COc1ccc(Nc2nc3ncc(C#N)c(Nc4ccc(F)c(Cl)c4)c3s2)cn1", "note": "[Cpd 26, 7-(3-chloro-4-fluoro-phenylamino)-2-(6-methoxy-pyridin-3-ylamino)-thiazolo[4,5-b]pyridine-6-carbonitrile]", "IC50": 158}, {"smiles": "COCCN(CCOC)Cc1ccc(Nc2nc3ncc(C#N)c(Nc4ccc(F)c(Cl)c4)c3s2)cc1", "note": "[Cpd 4, 2-(4-{[bis-(2-methoxy-ethyl)-amino]-methyl}-phenylamino)-7-(3-chloro-4-fluoro-phenylamino)-thiazolo[4,5-b]pyridine-6-carbonitrile]", "IC50": 49}, {"smiles": "CN(C)Cc1ccc(Nc2nc3ncc(C#N)c(Nc4ccc(F)c(Cl)c4)c3s2)cc1", "note": "[Cpd 3, 7-(3-chloro-4-fluoro-phenylamino)-2-(4-dimethylaminomethyl-phenylamino)-thiazolo[4,5-b]pyridine-6-carbonitrile]", "IC50": 43.7}]}]}
